Laboratory results reported in patent publication US8916607B2, “Use of piperphentonamine or salts thereof in manufacture of medicaments for treating brain diseases” (Guangzhou Municipal Zhongwei Biotechnology Limited Company, priority 2009, dated 2014).
Marks after values point to notes of the source that are not given here.

Experiments:
[1] = tested on: cerebral hemorrhage in rats induced by collagenase; test: ICH model induced by collagenase: NO in brain tissue by nitrate reductase method; assay type: in vivo, Wistar rats
Description: Rats in each group were anesthetized by chloral hydrate, decollated rapidly and the brain take were taken out. The brain tissue around the hole was cut and procured, weighed precisely, and made into a 10% tissue homogenate using a glass homogenizer in an ice bath environment with physiological saline as homogenized medium, the supernatant of which was taken to be determined the content of NO by nitrate reductase method.

[2] = tested on: cerebral hemorrhage in rats induced by collagenase; test: ICH model induced by collagenase: histopathological observation; assay type: in vivo, Wistar rats; conditions: large dose (2 mg/kg) pretreatment
Experimental: Influence of piperphentonamine hydrochloride on pathological morphology of cerebral hemorrhage in rats was observed. Each group animals were selected randomly, anesthetized deeply by chloral hydrate at predetermined time point, decollated and the brain were taken out rapidly, then, the brain tissue slices with hematoma (about 5 mm) were cut, and put into 10% formaldehyde solution immediately, fixed for 24 h followed by dehydration by graded ethanol, transparentizing by xylene, immersing in paraffin, embedding, slicing (5 μm), HE staining and sealing. The pathological changes area and the pathological change of the adjacent brain tissue were observed by optical microscope.

[3] = tested on: learning and memory dysfunction caused by cerebral ischemia reperfusion; test: platform-diving experiment in dementia model of mice caused by ischemia reperfusion; assay type: in vivo, Kunming mice; conditions: for memory achievement Error times / Learning achievement Error times: in 5 min; for memory achievement Error times: test-retest period; for Learning achievement Error times: training period
Experimental: The animals were randomly divided into five groups: sham operation group, model group, piperphentonamine hydrochloride 1 mg/kg group, 2 mg/kg group, 4 mg/kg group. There were 10 mice in each group.
After the mice were fasted for 16 hours, we established the dementia model of mice caused by ischemia reperfusion. The preparatory steps were proceeded as follows: anesthetizing mouse by sodium pentobarbital (60 mg/kg, ip), supinely immobilizing on a board, incising on the midmost of neck, isolating bilateral common carotid artery, and threading with zero-size silk thread. Afterwards, operation steps were proceeded as follows: blocking the blood flow of bilateral common carotid artery for 10 min, then resuming the blood flow for 10 min, repeating the blocking/resuming steps for 3 times, and suturing the skin. The mice were put in normal feeding conditions. Bilateral common carotid artery is only isolated for sham operation group.
After ischemia reperfusion for 10 min, the drugs are injected on tail vein, after ischemia reperfusion for 24 h, administering for the second time. Carrying on the platform-diving experiment after administering for half an hour. The mice under test are put into the platform-diving instrument, adapting the environment for 3 min, and then the bottom plate being electrified, observing the time when the mouse jump onto the high platform (reaction time) and the times which the mouse jump down from the high platform and are shocked by electricity in 5 min (the number of errors in the training period). After 24 h, administering again, then carry on the second platform-diving experiment to measure the function of obtaining memory. Putting the mouse on the platform of experimental instrument, electrifying the bottom plate at the same time, recording the time when the mouse jump down from the high platform (latency) and the times which shock by electricity in 5 min (the times of error in test-retest period).

[4] = tested on: cerebral edema of mice caused by closed cerebral trauma; test: closed cerebral trauma model of mice, brain water content; assay type: in vivo, Kunming mice; conditions: brain taken after 24 h
Experimental: There were 10 mice in each group.
The closed cerebral trauma model of mice being established after fasting for 16 hours, administering intravenously to each group, striping and taking the brain of mouse after 24 hours, weighing the wet weight, and drying at 70° C. for 24 hours, then weighing the dry weight, and calculating brainwater content; the brain water content which is higher than normal values indicates the cerebral edema.
The grouping method, administer method and model preparation were referred to example 2.

[5] = tested on: cerebral hemorrhage in rats induced by collagenase; test: ICH model induced by collagenase: NE in brain tissue by ELISA; assay type: in vivo, Wistar rats
Description: Rats in each group were anesthetized by chloral hydrate, decollated rapidly and the brains were taken out. The brain tissue around the hole was cut and procured, weighed precisely, and made into a 10% tissue homogenate using a glass homogenizer in an ice bath environment with physiological saline as homogenized medium, the supernatant of which was taken to be determined the NE activity using ELISA method.

[6] = tested on: infective brain edema of rats (pertussis bacteria liquid); test: infective cerebral edema by pertussis bacteria liquid: brain water, sodium and potassium ion content; assay type: in vivo, SD rats; design: Na^+ / K^+: unit not given here; conditions: pretreatment 0.5 mg/kg iv daily, two days; 4 h after bacteria liquid
[7] = tested on: cerebral ischemia/reperfusion injury in mice; test: focal cerebral ischemia reperfusion injury model in mice (suture method), TTC infarction area; assay type: in vivo; conditions: ischemia 2 h, reperfusion 24 h
Experimental: Focal cerebral ischemia reperfusion injury model is made in mice by using suture method, being ischemia for 2 h, then reperfusing for 24 h, and it proves that piperphentonamine hydrochloride has protective effect on ischemia-reperfusion cerebral injury.
Mouse is anesthetized by injecting 10% chloral hydrate (350 mg/kg) in intraperitoneal, being intravenously administered 1 mg/kg, 5 mg/kg piperphentonamine hydrochloride or 20 u/kg coenzyme A, (COA), making the cerebral artery ischemia like as the method of example 6. Pulling out nylon thread from the internal carotid artery after the operation in 2 hours, until the end of the nylon thread is at bifurcation of the common carotid artery. Reperfusing for 24 hours. Except for not inserting a thread, the rest of steps for the false operation group are same as the above-mentioned. After reperfusion for 24 h, decapitating and taking the brain of survived mice, rapidly putting in −20° C. freezer for 5 min, then removing, quickly cutting coronal slices of 2.0 mm thickness from forward to back on the operating table, putting the slices in phosphate buffer solution with 1% TTC immediately, incubating for 30 min in avoiding light at room temperature. Flip brain slices to make them touch staining solution uniformly every 10 minute, and scanning and observing the dyeing results.
The local cerebral ischemia model of mice was established by using thread bolt method, to validate that piperphentonamine acetate has protective effect on experimental cerebral ischemia animal.

[8] = tested on: cultured cerebral neurons; test: NMDA induces neuron injury in primary cultured neurons; assay type: cell-based, rat; conditions: 12 h; for mortality: NMDA 50 mmol/L

## CN(CCC(=O)/C=C/c1ccc(O)cc1)CCc1ccc2c(c1)OCO2.Cl [piperphentonamine hydrochloride, Piperphentonamine hydrochloride]
[1]; 2 mg/kg, ICH rat brain tissue
  NO: 1.65 ± 0.03^Δ μmol/g pro
[1]; high and low dose groups (2, 0.5 mg/kg)
  NO content in brain tissue: could decrease the NO content in brain tissue
[2]
  pathological morphology of cerebral hemorrhage: tissue edema and inflammatory cell infiltration after cerebral hemorrhage were reduce obviously
[3]; 1 mg/kg tail vein
  Learning achievement Reaction time s: 16.53 ± 11.75 s
  memory achievement latency s: 249.84 ± 133.55 s
  memory achievement Error times: 1.31 ± 0.58
  Learning achievement Error times: 5.37 ± 3.63
[3]; 2 mg/kg tail vein
  Learning achievement Reaction time s: 13.34 ± 8.85 s
  memory achievement latency s: 308.13 ± 97.73 s
  memory achievement Error times: 0.73 ± 0.58
  Learning achievement Error times: 5.08 ± 3.34
[3]; 4 mg/kg tail vein
  Learning achievement Reaction time s: 7.11 ± 4.06 s
  memory achievement latency s: 352.79 ± 141.5 s
  memory achievement Error times: 0.58 ± 1.45
  Learning achievement Error times: 4.5 ± 3.05
[4]; 1 mg/kg iv
  water content of cerebra (%): 82.05 ± 7.57 %
[4]; 2 mg/kg iv
  water content of cerebra (%): 78.67 ± 5.38 %
[4]; 4 mg/kg iv
  water content of cerebra (%): 75.43 ± 8.38 %
[5]; 2 mg/kg, ICH rat brain tissue homogenate
  NE: 1.61 ± 0.044^a ng/ml
[5]; high and low dose group (2, 0.5 mg/kg)
  brain tissue NE activity: could decrease the brain tissue NE activity significantly
[6]
  K^+: 436.3 ± 43.9
  Na^+: 181.1 ± 26.1
  water content of brain (%): 69.8 ± 0.44^3) %
[7]; 1 mg/kg iv
  The percentage of infarction area occupied the entire coronal plane (%): 19.78 ± 2.61 %
[7]; 5 mg/kg iv
  The percentage of infarction area occupied the entire coronal plane (%): 16.55 ± 2.32 %
[8]; drug 10 mmol/L, hydrochloride
  mortality: 38%
[8]; drug 10 mmol/L, listed as JBTA2, hydrochloride
  mortality: 38%
[8]; drug 100 mmol/L, hydrochloride
  mortality: 24%
[8]; drug 100 mmol/L, listed as JBTA2, hydrochloride
  mortality: 24%
[8]; drug 10
  morphological change of culture neuron: the degree of cell injury reduces significantly
